The values below come from PMC3677765 (Forensic science international, 2012).

Structures are written as SMILES.

A short description of one data set: Post-preparative. The following applies: extracted samples stored in the auto-sampler 72 h at room temperature. The class given is physicochemical.
Data set [1] can be described thus: Brain concentrations in mice after inhalation of "Magic Gold" smoke. The class given is in vivo, C57BL6 mice.
For data set [2] the following is noted: positive samples among 80 subjects (JWH-018 in 9, JWH-073 in 6); cited from earlier work.
Data set [3] is described as follows: Blood concentrations in mice after inhalation of "Magic Gold" smoke. The class given is in vivo, C57BL6 mice.
For data set [4] the following is noted: next specimen collected 18 h later (after the 6 h sample); cited from earlier work.

Consider `CCCCn1cc(C(=O)c2cccc3ccccc23)c2ccccc21` [JWH-073, Naphthalen-1-yl-(1-butylindol-3-yl)methanone], for which the “Degradation (auto-sampler stability)” value in “Post-preparative” is given as “approximately 20%”. In addition, the “JWH-073 brain concentration higher than JWH-018 (mean increase)” value in data set [1] (20 min after exposure) is 84%. Besides, in data set [1] (20 h post exposure, five mice), the “Brain concentration (range)” value was “not detected”. The “Serum concentration (mean)” value in data set [2] was 0.42 ng/mL. Besides, the “JWH-073 blood concentration higher than JWH-018 (mean increase)” value in data set [3] (20 min after exposure) was 53%.
Turning to `CCCCCn1cc(C(=O)c2cccc3ccccc23)c2ccccc21` [JWH-018, Naphthalen-1-yl-(1-pentylindol-3-yl)methanone], the Serum detection entry in data set [4] is recorded as “undetectable”. Further, in data set [2], the “Serum concentration (mean)” value was 1.84 ng/mL.
With `CCCCCn1cc(C(=O)c2ccc(Cl)c3ccccc23)c2ccccc21` [JWH-398, 4-chloronaphthalen-1-yl-(1-penty-lindolin-3-yl)methanone], the “Detection in brain samples” value in data set [1] (20 min and 20 h after exposure) is “not detected”. For the same compound, in data set [3] (20 min and 20 h after exposure), the “Detection in blood samples” value is “not detected”.
